Reference: patent US20260209249A1, “NOVEL TRICYCLIC COMPOUND AS KRAS G12D INHIBITOR, AND USE THEREOF” (SK Biopharmaceuticals Co., priority 2022, published 2026)

Assays:
[1] = tested on: ERK phosphorylation (pERK) induced by KRAS G12D mutation; assay: Inhibitory activity against ERK phosphorylation (pERK) induced by KRAS G12D mutation, immunofluorescence assay in AsPC-1 cells; format: cell-based; details: Homo sapiens, ASPC1, 3 h drug treatment, pERK (Thr202/Tyr204) signal normalized to DAPI
Method in brief: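 AsPC-1 cells attached 16 h, then treated 3 h with 3-fold dilutions from 10 μM top. Fixed, permeabilized, immunostained for pERK (Thr202/Tyr204) with Alexa 488 secondary; high-content imaging, signal normalized to DAPI and to DMSO, IC50 from four-parameter fit.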

[2] = target: T1, GppNHp-KRAS G12D mutant protein (Homo sapiens, UniProt P01116, G12D); assay: Differential scanning fluorimetry (DSF) binding affinity to GppNHp-KRAS G12D mutant protein; details: DSF thermal shift, 10 μM compound, 4 μg KRAS protein, 50 mM HEPES (pH 7.5)
T1 construct: purchased Daegu Gyeongbuk Medical Innovation Foundation (DGMIF), made to order
Method in brief: (§1)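 Each sample held 4 μg recombinant KRAS G12D (GDP- or GppNHp-bound) and 10 μM compound, incubated 30 min at room temperature before adding 2× SYPRO Orange. The GDP form was run in kit buffer, the GppNHp form in 50 mM HEPES pH 7.5. Melt was 25–99 °C at 0.05 °C/s (580/623 nm), reported as ΔTm versus no compound.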

[3] = tested on: KRAS G12D mutant pancreatic cancer cell line AsPC-1; assay: Cell viability assay using KRAS G12D mutant cells (AsPC-1, 3D culture, celltiter-glo 3D); format: cell-based; details: Homo sapiens, ASPC1, 5th day after compound treatment
Description: Test Example 3: Cell Viability Assay Using KRAS G12D Mutant Cells
The KRAS G12D mutant pancreatic cancer cell line AsPC-1 was obtained from the Korean Cell Line Bank (KCLB) and maintained in 100-mm dishes or T75 (75 cm^2) flasks using RPM11640+10% fetal bovine serum (FBS)+1% Penicillin-Streptomycin medium. The cells were cultured at 37° C. with 5% CO2. The number of viable cells was counted using Countess (Invitrogen).
When AsPC-1 cells reached 85-100% confluence in the flask, the cells were harvested using 1× trypsin/EDTA solution, and seeded into a 96-well plate for 3D culture at 1000 cells/100 μL/well. The next day, the compounds were diluted ⅕ with DMSO from 10 μM or 50 μM to 0.0001 μM or 0.0006 μM and treated 1:1 (v/v) in the plate where the cells were seeded.
Cell culture was terminated on the 5th day after compound treatment, and cell viability at each concentration was measured using the celltiter-glo 3D cell viability assay kit.
Cell viability assays were normalized to 100% for the DMSO-treated group and expressed as a percentage of the number of viable cells when treated with the compound.
Cell viability %=(average RLU of group treated with test substance−average RLU of untreated group)/(average RLU of group treated with DMSO−average RLU of untreated group)×100
The data were modeled using GraphPad Prism 9 (GraphPad Software) by applying a nonlinear regression curve fit with a four-parameter sigmoidal dose-response curve to determine cell viability as a function of compound concentration. The 50% inhibitory concentration (IC50) corresponds to the concentration at which the curve intersects the midpoint of cell viability. The results of the inhibitory effect of the compounds according to one embodiment of the present application on the viability of KRAS G12D mutant cells are presented in Table 4.

[4] = target: T2, GDP-KRAS G12D mutant protein (Homo sapiens, UniProt P01116, G12D); assay: Differential scanning fluorimetry (DSF) binding affinity to GDP-KRAS G12D mutant protein; details: DSF thermal shift, 10 μM compound, 4 μg KRAS protein
T2 construct: purchased Daegu Gyeongbuk Medical Innovation Foundation (DGMIF), made to order
Method in brief: as §1

Compound	IC50 [1]	GppNHp-KRAS G12D (ΔTmD, ° C.) [2]	IC50 [3]	GDP-KRAS G12D (ΔTmD, ° C.) [4]
C#Cc1c(F)ccc2cc(N)cc(-c3c(F)c4nc(OC[C@@]56CCCN5C[C@H](F)C6)nc(N5C[C@H]6CC[C@@H](C5)N6)c4c4cc(C)oc34)c12 [Example 57, 4-(1-((1R,5S)-3,8-diazabicyclo[3.2.1]octan-3-yl)-5-fluoro-3-(((2R,7aS)-2-fluorotetrahydro-1H-pyrrolizin-7a(5H)-yl)methoxy)-8-methylfuro[3,2-f]quinazolin-6-yl)-5-ethynyl-6-fluoronaphthalen-2-amine]	167 nM	5.76 °C	101 nM	8.57 °C
C#Cc1c(F)ccc2cc(O)cc(-c3cc4nc(OC[C@@]56CCCN5C/C(=C\F)C6)nc(N5C[C@H]6CC[C@@H](C5)N6)c4c4cn(C)nc34)c12 [Example 75, 4-(9-((1 R,5S)-3,8-diazabicyclo[3.2.1]octan-3-yl)-7-(((S,Z)-2-(fluoromethylene)tetrahydro-1H-pyrrolizin-7a(5H)-yl)methoxy)-2-methyl-2H-pyrazolo[4,3-f]quinazolin-4-yl)-5-ethynyl-6-fluoronaphthalen-2-ol]	20 nM	9.60 °C	34 nM	13.74 °C
C#Cc1c(F)ccc2cc(O)cc(-c3cc4nc(OCC5(CN6CCOCC6)CC5)nc(N5C[C@H]6CC[C@@H](C5)N6)c4n4ccnc34)c12 [Example 7, 4-(1-((1 R,5S)-3,8-diazabicyclo[3.2.1]octan-3-yl)-3-((1-(morpholinomethyl)cyclopropyl)methoxy)imidazo[1′,2′:1,6]pyrido[3,2-d]pyrimidin-6-yl)-5-ethynyl-6-fluoronaphthalen-2-ol]	269 nM	3.24 °C	109 nM	8.57 °C
C#Cc1c(F)ccc2cc(O)cc(-c3cc4nc(OC[C@@]56CCCN5C[C@H](F)C6)nc(N5C[C@H]6CC[C@@H](C5)N6)c4c4cc(C)oc34)c12 [Example 42, 4-(1-((1R,5S)-3,8-diazabicyclo[3.2.1]octan-3-yl)-3-(((2R,7aS)-2-fluorotetrahydro-1H-pyrrolizin-7a(5H)-yl)methoxy)-8-methylfuro[3,2-f]quinazolin-6-yl)-5-ethynyl-6-fluoronaphthalen-2-ol]	64 nM	5.75 °C	105 nM	10.96 °C
C#Cc1c(F)ccc2cc(O)cc(-c3c(F)c4nc(OCC5(CN6CCC7(CC6)CC7(F)F)CC5)nc(N5C[C@H]6CC[C@@H](C5)N6)c4c4cc(C)oc34)c12 [Example 59, 4-(1-((1R,5S)-3,8-diazabicyclo[3.2.1]octan-3-yl)-3-((1-((1,1-difluoro-6-azaspiro[2.5]octan-6-yl)methyl)cyclopropyl)methoxy)-5-fluoro-8-methylfuro[3,2-n]quinazolin-6-yl)-5-ethynyl-6-fluoronaphthalen-2-ol]	54 nM	6.06 °C	69 nM	12.88 °C
C#Cc1c(F)ccc2cc(O)cc(-c3c(F)c4nc(OC[C@]56CC(=C)CN5C[C@@H](F)C6)nc(N5C[C@H]6CC[C@@H](C5)N6)c4c4cc(C)oc34)c12 [Example 65, 4-(1-((1R,5S)-3,8-diazabicyclo[3.2.1]octan-3-yl)-5-fluoro-3-(((2S,7aR)-2-fluoro-6-methylenetetrahydro-1H-pyrrolizin-7a(5H)-yl)methoxy)-8-methylfuro[3,2-f]quinazolin-6-yl)-5-ethynyl-6-fluoronaphthalen-2-ol]	4 nM	8.60 °C	5 nM	14.23 °C
Cn1cc2c(n1)c(-c1cc(O)cc3ccc(F)c(F)c13)c(F)c1nc(OC[C@@]34CCCN3C/C(=C\F)C4)nc(N3C[C@H]4CC[C@@H](C3)N4)c12 [Example 86, 4-(9-((1R,5S)-3,8-diazabicyclo[3.2.1]octan-3-yl)-5-fluoro-7-(((S,Z)-2-(fluoromethylene)tetrahydro-1H-pyrrolizin-7a(5H)-yl)methoxy)-2-methyl-2H-pyrazolo[4,3-f]quinazolin-4-yl)-5,6-difluoronaphthalen-2-ol]	29 nM	10.69 °C	48 nM	13.07 °C
C#Cc1c(F)ccc2cc(O)cc(-c3cc4nc(OC[C@@]56CCCN5C/C(=C\F)C6)nc(N5C[C@H]6CC[C@@H](C5)N6)c4n4ccnc34)c12 [Example 29, 4-(1-((1R,5S)-3,8-diazabicyclo[3.2.1]octan-3-yl)-3-(((S,Z)-2-(fluoromethylene)tetrahydro-1H-pyrrolizin-7a(5H)-yl)methoxy)imidazo[1′,2′:1,6]pyrido[3,2-d]pyrimidin-6-yl)-5-ethynyl-6-fluoronaphthalen-2-ol]	15 nM	6.82 °C	19 nM	12.01 °C
C#Cc1c(F)ccc2cc(N)cc(-c3cc4nc(OC[C@@]56CCCN5C[C@H](F)C6)nc(N5[C@@H]6CC[C@H]5CNC6)c4n4ccnc34)c12 [Example 14, 4-(1-((1R,5S)-3,8-diazabicyclo[3.2.1]octan-8-yl)-3-(((2R,7aS)-2-fluorotetrahydro-1H-pyrrolizin-7a(5H)-yl)methoxy)imidazo[1′,2′:1,6]pyrido[3,2-d]pyrimidin-6-yl)-5-ethynyl-6-fluoronaphthalen-2-amine]	75 nM	4.73 °C	53 nM	7.98 °C
C#Cc1c(F)ccc2cc(O)cc(-c3cc4nc(OCC5(CN6CC[C@@H](F)C6)CC5)nc(N5[C@@H]6CC[C@H]5CNC6)c4n4ccnc34)c12 [Example 16, 4-(1-((1R,5S)-3,8-diazabicyclo[3.2.1]octan-8-yl)-3-((1-(((R)-3-fluoropyrrolidin-1-yl)methyl)cyclopropyl)methoxy)imidazo[1′,2′:1,6]pyrido[3,2-d]pyrimidin-6-yl)-5-ethynyl-6-fluoronaphthalen-2-ol]	176 nM	4.27 °C	94 nM	9.01 °C
C#Cc1c(F)ccc2cc(O)cc(-c3c(F)c4nc(OC[C@@]56CCCN5C[C@H](F)C6)nc(N5C[C@H]6CC[C@@H](C5)N6)c4c4cn(C)nc34)c12 [Example 80, 4-(9-((1R,5S)-3,8-diazabicyclo[3.2.1]octan-3-yl)-5-fluoro-7-(((2R,7aS)-2-fluorotetrahydro-1H-pyrrolizin-7a(5H)-yl)methoxy)-2-methyl-2H-pyrazolo[4,3-n]quinazolin-4-yl)-5-ethynyl-6-fluoronaphthalen-2-ol]	35 nM	11.13 °C	46 nM	14.81 °C
C#Cc1c(F)ccc2cc(O)cc(-c3cc4nc(OCC5(CN6CCC7(CC6)CC7(F)F)CC5)nc(N5C[C@H]6CC[C@@H](C5)N6)c4n4ccnc34)c12 [Example 9, 4-(1-((1R,5S)-3,8-diazabicyclo[3.2.1]octan-3-yl)-3-((1-((1,1-difluoro-6-azaspiro[2.5]octan-6-yl)methyl)cyclopropyl)methoxy)imidazo[1′,2′:1,6]pyrido[3,2-d]pyrimidin-6-yl)-5-ethynyl-6-fluoronaphthalen-2-ol]	165 nM	3.39 °C	50 nM	8.87 °C
CCc1c(F)ccc2cc(O)cc(-c3c(F)c4nc(OC[C@@]56CCCN5C[C@H](F)C6)nc(N5C[C@H]6CC[C@@H](C5)N6)c4c4cn(C)nc34)c12 [Example 93, 4-(9-((1R,5S)-3,8-diazabicyclo[3.2.1]octan-3-yl)-5-fluoro-7-(((2R,7aS)-2-fluorotetrahydro-1H-pyrrolizin-7a(5H)-yl)methoxy)-2-methyl-2H-pyrazolo[4,3-n]quinazolin-4-yl)-5-ethyl-6-fluoronaphthalen-2-ol]	16 nM	8.72 °C	38 nM	14.20 °C
